This is an account of results in patent publication US6534524B1, “Indazole compounds and pharmaceutical compositions for inhibiting protein kinases, and methods for their use” (Agouron Pharmaceuticals, Inc., priority 1999, dated 2003).

Data set [1] concerns the target phosphorylated VEGF-R2Δ50 (FLVK-P) (Homo sapiens, UniProt P35968, DEL940-989/E990V). Description: VEGF-R2 coupled spectrophotometric assay, phosphorylated VEGF-R2Δ50 (FLVK-P).
In the next data set the target is human FGF-R1 (Homo sapiens, UniProt P11362, C488A/C584S/L457V). Description: FGF-R spectrophotometric assay.
Data set [2] addresses unphosphorylated VEGF-R2Δ50 (FLVK) (Homo sapiens, UniProt P35968, DEL940-989/E990V). Nature of the data set: VEGF-R2 coupled spectrophotometric assay, unphosphorylated VEGF-R2Δ50 (FLVK). Conditions: FLVK Ki, Table 1.
For the next data set, the target named is CDK2/Cyclin A (Homo sapiens, UniProt P24941). Nature of the data set: CDK2/Cyclin A assay ([32P]ATP, Rb fragment). In kind it is biochemical. Conditions: Table 2.
Another data set concerns the target CDK4/Cyclin D3 complex (Homo sapiens, UniProt P11802). Nature of the data set: CDK4/Cyclin D assay ([32P]ATP, Rb fragment).
A short description of data set [3]: Human liver microsome (HLM) assay. In kind it is in vitro ADME. The conditions noted are these: human liver microsomes, 5 μM test compound. In short, it runs like this:
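Compound metabolism in human liver microsomes measured in triplicate. Samples at 0 and 2 h centrifuged at 14000 g for 10 min and analysed by LC-MS.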

Data set [4] is described as follows: Determination of inhibitor concentration in mouse plasma after intraperitoneal and oral dosing. In kind it is in vivo. The conditions noted are these: for concentration at 7 h: female. In short, it runs like this:
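Mice dosed intraperitoneally or orally; blood taken by ocular bleed at 0.5, 1 and 4 h and by intracardiac puncture at 7 h. Plasma extracted with ethyl acetate after internal standard and NaOH addition, analysed by HPLC or LC-MS against a mouse-plasma standard curve.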

Data set [5] has as its system human umbilical vein endothelial cells (HUVEC). Description: HUVEC proliferation assay (VEGF-stimulated, MTT). The conditions noted are these: Homo sapiens, HUVEC, + albumin; read-out: HUVEC + albumin IC50. Format: cell-based.
Setting [6] is: IP, 25 mg/kg, vehicle PEG400:H2O pH 2.3 60:40.
Setting [7] is: PO, 50 mg/kg, vehicle PEG400:H2O pH 2.3 60:40.
[8] abbreviates: PO, 25 mg/kg, vehicle PEG400:H2O pH 2.3 30:70.
[9] abbreviates: PO, 25 mg/kg, vehicle PEG400:H2O pH 2.3 30:70, read-out: Cmin (7 hr conc.).
Setting [10] is: IP, 25 mg/kg, vehicle PEG400:H2O pH 2.3 30:70.
Setting [11] is: PO, 50 mg/kg, vehicle PEG400:H2O pH 2.3 30:70.
Setting [12] is: IP, 25 mg/kg, vehicle PEG400:H2O pH 2.3 30:70, read-out: Cmin (7 hr conc.).

Like-named read-outs stand apart in the source and are kept apart here.

As usually defined, the Ki is the equilibrium dissociation constant of an inhibitor or competing ligand from its target. As a reminder, the Cmax is the highest concentration seen after dosing. What is called IC50 is the concentration at which inhibition is half-maximal. One may read the inhibition as the relative decrease from the control value, in per cent.

Chain of unphosphorylated VEGF-R2Δ50 (FLVK) (P35968 with tags, fused parts or gaps DEL940-989/E990V limits assumed): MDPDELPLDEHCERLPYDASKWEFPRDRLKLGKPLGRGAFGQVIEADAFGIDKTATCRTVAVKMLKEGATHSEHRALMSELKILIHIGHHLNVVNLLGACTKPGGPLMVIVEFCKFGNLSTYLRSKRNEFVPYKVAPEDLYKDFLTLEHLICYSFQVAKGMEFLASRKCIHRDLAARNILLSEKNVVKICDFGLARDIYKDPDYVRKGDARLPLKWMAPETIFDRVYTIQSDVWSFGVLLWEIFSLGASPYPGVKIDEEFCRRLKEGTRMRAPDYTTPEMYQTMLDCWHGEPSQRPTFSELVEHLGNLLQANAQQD
Chain of phosphorylated VEGF-R2Δ50 (FLVK-P) (P35968 with tags, fused parts or gaps DEL940-989/E990V limits assumed): as above
Chain of human FGF-R1 (P11362 456-766 L457V/C488A/C584S): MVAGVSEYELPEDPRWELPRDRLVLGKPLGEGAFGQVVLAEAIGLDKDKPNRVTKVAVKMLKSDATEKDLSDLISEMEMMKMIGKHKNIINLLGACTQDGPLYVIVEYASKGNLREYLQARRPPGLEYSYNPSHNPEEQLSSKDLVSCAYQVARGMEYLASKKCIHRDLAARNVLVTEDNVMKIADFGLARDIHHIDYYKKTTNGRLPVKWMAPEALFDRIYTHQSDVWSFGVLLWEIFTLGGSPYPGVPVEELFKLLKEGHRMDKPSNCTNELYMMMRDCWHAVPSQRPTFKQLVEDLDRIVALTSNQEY
Chain of CDK4/Cyclin D3 complex (P11802 whole entry, the tested form may be a part): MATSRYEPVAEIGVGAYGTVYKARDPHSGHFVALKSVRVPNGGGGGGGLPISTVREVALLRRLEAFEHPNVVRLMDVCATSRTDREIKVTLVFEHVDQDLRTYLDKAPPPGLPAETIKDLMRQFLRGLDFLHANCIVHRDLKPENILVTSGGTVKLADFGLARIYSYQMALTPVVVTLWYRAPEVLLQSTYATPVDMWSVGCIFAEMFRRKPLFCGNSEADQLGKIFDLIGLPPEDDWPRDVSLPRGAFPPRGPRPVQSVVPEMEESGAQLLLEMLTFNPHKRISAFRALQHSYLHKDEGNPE
Chain of CDK4/Cyclin D3 complex (P30281 whole entry partner, the tested form may be a part): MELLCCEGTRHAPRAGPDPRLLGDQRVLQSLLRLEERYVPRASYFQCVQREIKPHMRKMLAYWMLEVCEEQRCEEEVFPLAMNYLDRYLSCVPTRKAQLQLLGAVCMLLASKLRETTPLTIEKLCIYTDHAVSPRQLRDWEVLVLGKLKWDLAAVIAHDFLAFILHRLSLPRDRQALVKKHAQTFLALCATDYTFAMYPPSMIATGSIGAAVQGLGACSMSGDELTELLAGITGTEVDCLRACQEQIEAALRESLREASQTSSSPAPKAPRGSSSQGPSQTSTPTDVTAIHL

Turning to `Cc1cccc(C(=O)Nc2cccc(Oc3ccc4c(-c5cc6ccccc6[nH]5)n[nH]c4c3)c2)c1` [Example 6(b)], in data set [1], the Ki was determined as 0.15 nM.

As for `CN(c1cccc(N)c1)c1ccc2c(/C=C/c3ccccc3)n[nH]c2c1` [Example 11, N-Methyl-N-(3-styryl-1H-indazol-6-yl)-benzene-1,3-diamine], the Ki amounted to 34000 nM on human FGF-R1 and 12 nM in data set [2].

As to `CN(c1cccc(N)c1)c1ccc2c(/C=C/c3ccc4c(c3)OCO4)n[nH]c2c1` [Example 15, N-[3-(2-Benzo[1,3]dioxol-5-yl-vinyl)-1H-indazol-6-yl]-N-methyl-benzene-1,3-diamine], the affinity in data set [1], expressed as Ki, was 15 nM. In other words, the double-digit nanomolar range.

In turn, `CN(C)c1cccc(C(=O)Nc2cccc(N(C)c3ccc4c(/C=C/c5ccc6c(c5)OCO6)n[nH]c4c3)c2)c1` [Example 16(c), N-(3-{[3-(2-Benzo[1,3]dioxol-5-yl-vinyl)-1H-indazol-6-yl]-methyl-amino}-phenyl)-3-dimethylamino-benzamide] showed a Ki in data set [1] of 1.1 nM.

The compound `CN(c1cccc(NC(=O)c2ccc(O)c(C(C)(C)C)c2)c1)c1ccc2c(/C=C/c3ccc4c(c3)OCO4)n[nH]c2c1` [Example 16(f)] returned a Ki in data set [1] of 2.8 nM.

With `CC(=O)Nc1cccc(C(=O)c2ccc3c(/C=C/c4ccccc4)n[nH]c3c2)c1` [Example 19(a), N-[3-(3-Styryl-1H-indazole-6-carbonyl)-phenyl]-acetamide], the Ki in data set [2] was 13.8 nM; in data set [1], 6.8 nM.

In the case of `O=C(Nc1cccc(C(=O)c2ccc3c(/C=C/c4ccccc4)n[nH]c3c2)c1)OCc1ccccc1` [Example 19(c)], the affinity in data set [1], expressed as Ki, was 5.9 nM.

Regarding `Cc1cncc(C(=O)Nc2cccc(C(=O)c3ccc4c(/C=C/c5ccccc5)n[nH]c4c3)c2)c1` [Example 19(e), 6-[3-(5-Methylpyridin-3-ylcarboxamido)benzoyl]-3-E-styryl-1H-indazole], the Ki in data set [1] was 20 nM.

`CC(C)C(=O)Nc1cccc(C(=O)c2ccc3c(/C=C/c4ccccc4)n[nH]c3c2)c1` [Example 19(h), 6-[3-(2-Methylpropionamido)benzoyl]-3-E-styryl-1H-indazole] displayed a Ki in data set [1] of 5.9 nM. Against the preceding compound, the Ki is about 3.4-fold lower.

Take `CSc1cc(O)ccc1-c1ccc2c(-c3nc4ccccc4[nH]3)n[nH]c2c1` [Example 24(k), 3-1H-Benzoimidazol-2-yl-6-(2-methylsulfanyl-4-hydroxyphenyl)-1H-indazole]: the results for the Ki at CDK2/Cyclin A, at human FGF-R1 and at CDK4/Cyclin D3 complex were 56 nM, 160 nM and 7.2 nM, respectively.

`CC(=O)N1CCC(C(=O)Nc2cccc(Oc3ccc4c(/C=C/c5ccc(Cl)cc5)n[nH]c4c3)c2)CC1` [Example 30(b), 6-[3-(1-Acetylpiperidin-4-ylcarboxamido)phenoxy]-3-E-[2-(4-chlorophenyl)ethenyl]-1H-indazole] gave a Ki in data set [1] of 2.2 nM.

With `O=C(Nc1cccc(Cl)c1)c1ccccc1Sc1ccc2c(/C=C/c3ccccn3)n[nH]c2c1` [Example 33(d), 6-[2-(3-Chlorophenylcarbamoyl)phenylsulfanyl]-3-E-[2-(pyridin-2-yl)ethenyl]-1H-indazole], the “% remain (HLM, 2 h)” value in data set [3] is recorded as 22%. Moreover, the AUClast worked out at 5080 ng·h/mL in data set [4] (setting [6]) and 4744 ng·h/mL in data set [4] (setting [7]). For the same compound, the “plasma half-life (T1/2)” value was 1.6 h in data set [4] (setting [6]) and 0.9 h in data set [4] (setting [7]). The concentration at 7 h is 113 ng/mL in data set [4] (IP, 25 mg/kg, vehicle PEG400:H2O pH 2.3 60:40, read-out: Cmin (7 hr conc.)) and 8 ng/mL in data set [4] (PO, 50 mg/kg, vehicle PEG400:H2O pH 2.3 60:40, read-out: Cmin (7 hr conc.)). Also, the Ki at human FGF-R1 came out at 24 nM; in data set [2] it was 0.14 nM.

For `O=C(NNc1ccccn1)c1ccccc1Sc1ccc2c(/C=C/c3ccccn3)n[nH]c2c1` [Example 35(n)], in data set [3], the “% remain (HLM, 2 h)” value was 47%. Moreover, in data set [4] (setting [8]), the AUClast turned out to be 4818 ng·h/mL, the Cmax is 3545 ng/mL and the “plasma half-life (T1/2)” value is 1.4 h. In addition, in data set [4] (setting [9]), the concentration at 7 h stood at 55 ng/mL. This compound had a Ki at human FGF-R1 of 92 nM. Also, the affinity in data set [2], expressed as Ki, was 0.83 nM.

On to `CONC(=O)c1ccccc1Sc1ccc2c(/C=C/c3ccccn3)n[nH]c2c1` [Example 35(r), 6-[2-(Methoxycarbamoyl)phenylsulfanyl]-3-E-[2-(pyridin-2-yl)ethenyl]-1H-indazole], for which, in data set [3], the “% remain (HLM, 2 h)” value is recorded as 51%. Moreover, the AUClast in data set [4] (setting [8]) is 4261 ng·h/mL. Further, the “plasma half-life (T1/2)” value in data set [4] (setting [8]) came out at 1.3 h. Besides, the concentration at 7 h in data set [4] (setting [9]) came to 67 ng/mL. Besides, the Ki at human FGF-R1 is 20 nM; in data set [2], 0.11 nM.

Consider `Nc1cccc(C(=O)c2ccc3c(/C=C/c4ccccn4)n[nH]c3c2)c1` [Example 40(a), 6(3-Amino-benzoyl)-3-E-[2-(pyridin-2-yl)ethenyl]-1H-indazole], for which, in data set [1], the Ki amounted to 17.9 nM.

Consider `CCn1nc(C)cc1C(=O)Nc1cccc(C(=O)c2ccc3c(/C=C/c4ccccn4)n[nH]c3c2)c1` [Example 41(a), 6-[3-((1-Ethyl-3-methyl-1H-pyrazol-5-yl)carboxamido)benzoyl]-3-E-[2-(pyridin-2-yl)ethenyl]-1H-indazole], for which, in data set [3], the “% remain (HLM, 2 h)” value stood at 96%. The AUClast in data set [4] (setting [10]) came out at 92823 ng·h/mL; in data set [4] (setting [11]), 48998 ng·h/mL. In addition, the Cmax in data set [4] (setting [10]) was 32202 ng/mL; in data set [4] (setting [11]) it was 18433 ng/mL. The “plasma half-life (T1/2)” value in data set [4] (setting [10]) came to 2.9 h; in data set [4] (setting [11]) it was 3.4 h. Further, the concentration at 7 h was 3860 ng/mL in data set [4] (setting [12]) and 2460 ng/mL in data set [4] (PO, 50 mg/kg, vehicle PEG400:H2O pH 2.3 30:70, read-out: Cmin (7 hr conc.)). Also, the figures for the Ki (at human FGF-R1; in data set [2]) were 20 nM and 0.03 nM, respectively.

For the compound `C=CCn1nc(C)cc1C(=O)Nc1cc(C(=O)c2ccc3c(/C=C/c4ccccn4)n[nH]c3c2)ccc1C` [Example 41(ff), 6-[3-((1-Allyl-3-methyl-1H-pyrazol-5-yl)carboxamido)-4-methylbenzoyl]-3-E-[2-(pyridin-2-yl)ethenyl]-1H-indazole], the “% remain (HLM, 2 h)” value in data set [3] is 68%. Further, in data set [4] (setting [8]), the AUClast was 9176 ng·h/mL and the “plasma half-life (T1/2)” value was determined as 2.0 h. The concentration at 7 h in data set [4] (setting [9]) was 410 ng/mL. On human FGF-R1, this compound yielded a Ki of 12 nM.

With `CC(=O)Nc1cc(C(=O)c2ccc3c(/C=C/c4ccccn4)n[nH]c3c2)ccc1C` [Example 41(gg), 6-(3-Acetamido-4-methylbenzoyl)-3-E-[2-(pyridin-2-yl)ethenyl]-1H-indazole], in data set [4] (setting [8]), the AUClast worked out at 2692 ng·h/mL, the Cmax turned out to be 2079 ng/mL and the “plasma half-life (T1/2)” value is 1.1 h. Moreover, the concentration at 7 h in data set [4] (setting [9]) stood at 29 ng/mL. Further, the Ki at human FGF-R1 amounted to 3.5 nM.

With `Cc1cc(C(=O)Nc2cccc(C(=O)c3ccc4c(/C=C/c5ccccn5)n[nH]c4c3)c2)n(C)n1` [Example 41(p), 6-[3-((1,3-Dimethyl-1H-pyrazol-5-yl)carboxamido)benzoyl]-3-E-[2-(pyridin-2-yl)ethenyl]-1H-indazole], the “% remain (HLM, 2 h)” value in data set [3] is recorded as 62%. In data set [4] (setting [10]), the AUClast stood at 4150 ng·h/mL and the “plasma half-life (T1/2)” value is 5.5 h. Besides, the concentration at 7 h in data set [4] (setting [12]) is 380 ng/mL. Moreover, at human FGF-R1, affinity was put at a Ki of 90 nM. In addition, the Ki in data set [2] stood at 0.06 nM.

For `Cc1cc(C(=O)Nc2cccc(C(=O)c3ccc4c(/C=C/c5ccccn5)n[nH]c4c3)c2)n(C(C)C)n1` [Example 41(x), 6-[3-((1-Isopropyl-3-methyl-1H-pyrazol-5-yl)carboxamido)benzoyl]-3-E-[2-(pyridin-2-yl)ethenyl]-1H-indazole], in data set [4] (setting [8]), the AUClast came to 24174 ng·h/mL, the Cmax stood at 4587 ng/mL and the “plasma half-life (T1/2)” value was found to be 4.2 h. Besides, in data set [4] (setting [9]), the concentration at 7 h was found to be 1270 ng/mL. In addition, the Ki at human FGF-R1 turned out to be 3.4 nM.

Regarding `O=CNc1ccccc1/C=C/c1n[nH]c2cc(C(=O)c3cccc(NC(=O)c4ccccc4)c3)ccc12` [Example 43, 6-(3-Benzamidobenzoyl)-3-E-[2-(2-formamidophenyl)ethenyl]-1H-indazole], in data set [5], the IC50 was found to be 24 nM. Also, in data set [1] (read-out: FLVK-P % inhibition), the inhibition at 0.05 µM came out at 56%.

As for `Nc1cccc(Nc2ccc3c(/C=C/c4ccccc4)n[nH]c3c2)c1` [Example 46], the Ki in data set [1] was determined as 3.5 nM.

For `CCn1nc(C)cc1C(=O)Nc1cc(Nc2ccc3c(/C=C/c4ccccn4)n[nH]c3c2)c(F)cc1C` [Example 48(a), 6-[N-(5-((1-Ethyl-3-methyl-1H-pyrazol-5-yl)carboxanido)-2-fluoro-4-methylphenyl)amino]-3-E-[2-(pyridin-2-yl)ethenyl]-1H-indazole], in data set [5], the IC50 is 8.8 nM. Moreover, in data set [3], the “% remain (HLM, 2 h)” value was determined as 55%. The Ki at human FGF-R1 was 14 nM; in data set [2] it was 0.37 nM.
